This note sets out measurements from ChEMBL document CHEMBL5653615 (J Biol Chem, 2013).

SMILES strings stand for the structures.

Assay [1] deals with T1, Ephrin type-B receptor 1 (Homo sapiens) (UniProt P54762).
T1 sequence (whole entry): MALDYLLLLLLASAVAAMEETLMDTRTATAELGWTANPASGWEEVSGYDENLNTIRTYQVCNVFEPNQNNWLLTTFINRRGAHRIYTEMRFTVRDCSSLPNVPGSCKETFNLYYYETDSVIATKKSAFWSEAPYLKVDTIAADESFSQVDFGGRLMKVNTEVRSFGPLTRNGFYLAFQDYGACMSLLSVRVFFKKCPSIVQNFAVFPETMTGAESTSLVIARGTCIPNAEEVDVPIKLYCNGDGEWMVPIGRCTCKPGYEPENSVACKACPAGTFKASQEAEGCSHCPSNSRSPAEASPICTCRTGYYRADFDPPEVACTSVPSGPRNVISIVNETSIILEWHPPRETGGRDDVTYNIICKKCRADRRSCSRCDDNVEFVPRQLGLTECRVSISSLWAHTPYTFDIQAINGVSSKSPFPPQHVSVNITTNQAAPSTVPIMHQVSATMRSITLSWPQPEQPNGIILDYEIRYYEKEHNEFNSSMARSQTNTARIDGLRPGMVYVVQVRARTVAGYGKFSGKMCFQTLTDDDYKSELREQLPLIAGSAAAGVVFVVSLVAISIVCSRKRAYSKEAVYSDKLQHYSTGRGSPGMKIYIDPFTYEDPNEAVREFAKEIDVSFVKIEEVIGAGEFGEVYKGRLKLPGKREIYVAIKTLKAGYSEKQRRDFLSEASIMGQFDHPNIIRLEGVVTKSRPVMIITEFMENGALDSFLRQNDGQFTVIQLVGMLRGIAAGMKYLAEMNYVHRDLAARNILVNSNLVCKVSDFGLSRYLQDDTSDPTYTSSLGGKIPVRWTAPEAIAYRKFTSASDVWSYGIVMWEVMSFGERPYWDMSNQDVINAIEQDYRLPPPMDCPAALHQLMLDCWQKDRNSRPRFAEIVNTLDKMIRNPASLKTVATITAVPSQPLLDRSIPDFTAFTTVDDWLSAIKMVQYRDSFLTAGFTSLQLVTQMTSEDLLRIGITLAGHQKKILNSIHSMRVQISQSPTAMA
The assay can be described thus: Inhibition of human EPHB1 at 18.6 nM by HotSpot assay relative to control.

Assay [2] concerns the target Receptor tyrosine-protein kinase erbB-2 (Homo sapiens) (UniProt P04626). In words: Inhibition of human ERBB2 at 18.6 nM by HotSpot assay relative to control.
For assay [3], the target named is Protein kinase C beta type (Homo sapiens) (UniProt P05771). The assay can be described thus: Inhibition of human PKCb2 at 18.6 nM by HotSpot assay relative to control.
The target of assay [4] is T2, cGMP-dependent protein kinase 1 (Homo sapiens) (UniProt Q13976).
T2 sequence (whole entry): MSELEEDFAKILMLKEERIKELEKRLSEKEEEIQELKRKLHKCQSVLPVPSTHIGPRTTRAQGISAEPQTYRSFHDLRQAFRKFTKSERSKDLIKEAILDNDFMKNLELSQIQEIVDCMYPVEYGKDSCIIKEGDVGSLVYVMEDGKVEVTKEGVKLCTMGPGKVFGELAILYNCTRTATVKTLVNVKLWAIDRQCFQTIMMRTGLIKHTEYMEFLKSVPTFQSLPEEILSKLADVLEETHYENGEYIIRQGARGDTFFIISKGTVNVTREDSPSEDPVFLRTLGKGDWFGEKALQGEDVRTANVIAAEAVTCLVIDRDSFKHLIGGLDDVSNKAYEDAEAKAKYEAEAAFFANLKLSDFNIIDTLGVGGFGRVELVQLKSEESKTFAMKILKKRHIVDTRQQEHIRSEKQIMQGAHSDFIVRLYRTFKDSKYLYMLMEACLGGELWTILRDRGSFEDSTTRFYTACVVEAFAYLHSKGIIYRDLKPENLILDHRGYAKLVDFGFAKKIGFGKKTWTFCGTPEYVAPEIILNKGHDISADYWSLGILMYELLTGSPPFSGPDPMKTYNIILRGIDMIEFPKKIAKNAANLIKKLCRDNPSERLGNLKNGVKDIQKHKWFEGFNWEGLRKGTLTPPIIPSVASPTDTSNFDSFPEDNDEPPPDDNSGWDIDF
In words: Inhibition of human PKG1b at 18.6 nM by HotSpot assay relative to control.

The target in assay [5] is Casein kinase I isoform gamma-3 (Homo sapiens) (UniProt Q9Y6M4). In words: Inhibition of human CK1g3 at 1.82 nM by HotSpot assay relative to control.
The target of assay [6] is Homeodomain-interacting protein kinase 3 (Homo sapiens) (UniProt Q9H422). In words: Inhibition of human HIPK3 at 1.82 nM by HotSpot assay relative to control.
Assay [7] deals with T3, Protein kinase C epsilon type (Homo sapiens) (UniProt Q02156).
T3 sequence (whole entry): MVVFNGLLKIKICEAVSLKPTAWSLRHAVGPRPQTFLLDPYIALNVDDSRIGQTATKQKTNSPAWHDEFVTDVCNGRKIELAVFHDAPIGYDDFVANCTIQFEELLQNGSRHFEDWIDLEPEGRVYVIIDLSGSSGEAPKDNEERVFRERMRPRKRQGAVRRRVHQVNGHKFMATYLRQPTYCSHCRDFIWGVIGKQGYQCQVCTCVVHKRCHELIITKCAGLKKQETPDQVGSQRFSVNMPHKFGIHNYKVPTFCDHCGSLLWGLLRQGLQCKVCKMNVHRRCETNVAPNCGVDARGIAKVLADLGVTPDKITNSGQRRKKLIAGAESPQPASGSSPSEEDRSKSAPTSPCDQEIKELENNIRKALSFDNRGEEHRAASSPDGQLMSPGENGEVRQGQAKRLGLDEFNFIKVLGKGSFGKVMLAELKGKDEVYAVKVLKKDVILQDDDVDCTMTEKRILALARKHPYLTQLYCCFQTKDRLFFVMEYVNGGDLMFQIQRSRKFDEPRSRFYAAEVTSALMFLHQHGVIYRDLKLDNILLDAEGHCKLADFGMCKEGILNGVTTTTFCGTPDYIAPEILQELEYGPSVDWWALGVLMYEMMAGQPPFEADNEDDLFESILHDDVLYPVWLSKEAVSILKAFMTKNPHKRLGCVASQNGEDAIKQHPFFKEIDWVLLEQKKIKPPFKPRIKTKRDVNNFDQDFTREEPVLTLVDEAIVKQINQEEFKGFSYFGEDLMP
In words: Inhibition of human PKCepsilon at 1.82 nM by HotSpot assay relative to control.

Chain of Casein kinase I isoform gamma-3 (Homo sapiens) (Q9Y6M4 whole entry, looked up, canonical isoform): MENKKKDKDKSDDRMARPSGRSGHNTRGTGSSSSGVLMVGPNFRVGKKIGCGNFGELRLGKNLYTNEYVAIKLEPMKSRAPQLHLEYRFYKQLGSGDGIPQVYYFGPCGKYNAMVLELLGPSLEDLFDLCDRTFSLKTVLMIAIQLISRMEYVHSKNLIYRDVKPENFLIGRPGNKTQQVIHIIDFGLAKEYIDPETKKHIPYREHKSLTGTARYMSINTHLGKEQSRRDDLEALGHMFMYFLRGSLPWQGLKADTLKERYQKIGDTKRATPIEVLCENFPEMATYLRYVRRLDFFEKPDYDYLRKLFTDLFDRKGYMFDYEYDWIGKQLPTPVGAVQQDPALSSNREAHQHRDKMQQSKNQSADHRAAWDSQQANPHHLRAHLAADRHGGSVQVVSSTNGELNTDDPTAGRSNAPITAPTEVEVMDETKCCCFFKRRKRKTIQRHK
Chain of Homeodomain-interacting protein kinase 3 (Homo sapiens) (Q9H422 whole entry, looked up): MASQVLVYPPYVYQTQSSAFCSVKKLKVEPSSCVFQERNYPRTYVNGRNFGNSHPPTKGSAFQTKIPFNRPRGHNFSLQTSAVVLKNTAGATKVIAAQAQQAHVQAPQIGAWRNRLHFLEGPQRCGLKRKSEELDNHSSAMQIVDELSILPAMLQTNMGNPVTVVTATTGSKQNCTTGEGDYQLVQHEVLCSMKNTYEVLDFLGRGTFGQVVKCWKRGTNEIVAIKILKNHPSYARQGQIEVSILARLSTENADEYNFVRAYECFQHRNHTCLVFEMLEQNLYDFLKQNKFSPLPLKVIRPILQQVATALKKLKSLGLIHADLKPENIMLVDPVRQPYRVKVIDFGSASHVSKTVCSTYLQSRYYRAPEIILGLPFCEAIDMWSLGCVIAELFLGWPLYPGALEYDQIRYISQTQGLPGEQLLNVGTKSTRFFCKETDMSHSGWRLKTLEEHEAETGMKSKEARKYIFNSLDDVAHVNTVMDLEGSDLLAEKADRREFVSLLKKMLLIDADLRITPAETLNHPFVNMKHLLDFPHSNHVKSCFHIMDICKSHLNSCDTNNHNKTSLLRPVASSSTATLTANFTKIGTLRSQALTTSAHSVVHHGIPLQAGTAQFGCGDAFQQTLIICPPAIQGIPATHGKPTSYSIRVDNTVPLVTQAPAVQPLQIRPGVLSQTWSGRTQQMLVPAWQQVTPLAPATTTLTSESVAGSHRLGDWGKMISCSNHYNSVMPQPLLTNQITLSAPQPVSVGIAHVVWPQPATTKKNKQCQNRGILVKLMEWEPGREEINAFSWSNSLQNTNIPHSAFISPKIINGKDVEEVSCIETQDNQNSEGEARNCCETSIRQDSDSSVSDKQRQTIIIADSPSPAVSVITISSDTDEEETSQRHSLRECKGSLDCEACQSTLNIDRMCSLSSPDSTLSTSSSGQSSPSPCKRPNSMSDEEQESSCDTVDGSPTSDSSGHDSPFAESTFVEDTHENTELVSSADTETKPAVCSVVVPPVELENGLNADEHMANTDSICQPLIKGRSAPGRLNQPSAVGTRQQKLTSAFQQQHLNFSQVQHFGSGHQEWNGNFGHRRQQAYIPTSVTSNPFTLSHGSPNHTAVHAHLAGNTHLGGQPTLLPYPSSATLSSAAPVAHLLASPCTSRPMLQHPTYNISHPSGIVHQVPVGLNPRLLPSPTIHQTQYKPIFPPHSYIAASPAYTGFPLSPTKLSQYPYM
Chain of Receptor tyrosine-protein kinase erbB-2 (Homo sapiens) (P04626 whole entry): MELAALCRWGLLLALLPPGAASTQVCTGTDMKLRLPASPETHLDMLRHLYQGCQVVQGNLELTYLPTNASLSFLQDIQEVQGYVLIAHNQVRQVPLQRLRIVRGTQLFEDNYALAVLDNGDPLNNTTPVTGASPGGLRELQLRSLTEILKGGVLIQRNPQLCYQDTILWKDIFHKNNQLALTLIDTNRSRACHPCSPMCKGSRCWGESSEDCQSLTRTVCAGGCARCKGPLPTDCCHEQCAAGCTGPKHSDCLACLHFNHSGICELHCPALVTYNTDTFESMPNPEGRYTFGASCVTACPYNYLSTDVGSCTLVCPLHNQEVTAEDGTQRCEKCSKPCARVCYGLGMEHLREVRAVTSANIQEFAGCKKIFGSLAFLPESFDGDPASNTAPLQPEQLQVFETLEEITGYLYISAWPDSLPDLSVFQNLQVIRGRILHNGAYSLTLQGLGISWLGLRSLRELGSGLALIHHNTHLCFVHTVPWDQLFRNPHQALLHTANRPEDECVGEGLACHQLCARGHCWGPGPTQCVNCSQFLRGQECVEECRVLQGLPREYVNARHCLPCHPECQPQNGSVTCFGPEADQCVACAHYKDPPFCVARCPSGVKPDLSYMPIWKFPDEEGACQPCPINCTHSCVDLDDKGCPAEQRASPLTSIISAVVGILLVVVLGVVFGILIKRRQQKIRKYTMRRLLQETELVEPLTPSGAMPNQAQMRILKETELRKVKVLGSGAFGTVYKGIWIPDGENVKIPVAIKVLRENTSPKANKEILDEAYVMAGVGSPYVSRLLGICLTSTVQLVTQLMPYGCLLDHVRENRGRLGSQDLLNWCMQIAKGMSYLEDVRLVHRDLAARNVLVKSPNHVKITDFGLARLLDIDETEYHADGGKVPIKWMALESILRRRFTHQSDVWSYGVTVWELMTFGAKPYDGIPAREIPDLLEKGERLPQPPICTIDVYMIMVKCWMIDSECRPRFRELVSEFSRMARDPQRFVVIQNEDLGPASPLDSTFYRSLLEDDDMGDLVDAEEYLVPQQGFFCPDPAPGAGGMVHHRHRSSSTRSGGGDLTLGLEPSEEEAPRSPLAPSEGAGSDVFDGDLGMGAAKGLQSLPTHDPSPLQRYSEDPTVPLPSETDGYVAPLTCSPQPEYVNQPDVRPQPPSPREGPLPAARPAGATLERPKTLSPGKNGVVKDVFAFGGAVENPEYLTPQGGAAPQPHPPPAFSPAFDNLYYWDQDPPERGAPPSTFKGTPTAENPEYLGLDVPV
Chain of Protein kinase C beta type (Homo sapiens) (P05771 2-671 limits assumed): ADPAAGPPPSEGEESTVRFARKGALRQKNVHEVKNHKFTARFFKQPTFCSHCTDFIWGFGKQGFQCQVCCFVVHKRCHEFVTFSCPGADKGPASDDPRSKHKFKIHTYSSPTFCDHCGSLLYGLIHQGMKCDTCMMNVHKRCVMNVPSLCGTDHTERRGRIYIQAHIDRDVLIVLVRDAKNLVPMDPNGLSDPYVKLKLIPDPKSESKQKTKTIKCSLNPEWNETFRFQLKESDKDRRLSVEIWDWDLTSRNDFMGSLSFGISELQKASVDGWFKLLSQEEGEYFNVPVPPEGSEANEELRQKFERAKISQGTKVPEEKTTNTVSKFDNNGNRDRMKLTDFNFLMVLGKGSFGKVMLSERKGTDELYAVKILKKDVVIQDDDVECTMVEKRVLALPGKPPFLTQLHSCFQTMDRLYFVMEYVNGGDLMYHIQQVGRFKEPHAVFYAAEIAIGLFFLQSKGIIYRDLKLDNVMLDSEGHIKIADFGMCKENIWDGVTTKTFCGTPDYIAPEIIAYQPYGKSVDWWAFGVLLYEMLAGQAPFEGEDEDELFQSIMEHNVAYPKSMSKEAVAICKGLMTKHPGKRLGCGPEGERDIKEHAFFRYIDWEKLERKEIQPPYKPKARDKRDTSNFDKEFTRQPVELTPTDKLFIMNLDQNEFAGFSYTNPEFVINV

Take `C[C@]1(O)C[C@@H](c2nc(-c3ccc4ccc(-c5ccccc5)nc4c3)c3c(N)nccn32)C1`: the inhibition in assay [1] is -4.68%; in assay [2], 1.71%; in assay [3], -7.92%; in assay [4], -6.35%.

As to `C[C@@]1(C(=O)Nc2ccc(F)nc2)CCCN1c1nc(Nc2cc(C3CC3)n[nH]2)c2cccn2n1`, the inhibition in assay [5] is 0.91%; in assay [6] it was -3.9%; in assay [7] it was -6.93%.

In general, inhibition refers to the drop in the measured response relative to a control, in per cent.
